In patent US20240300932A1, “N-PHENYLIMINE DERIVATIVE AND PREPARATION METHOD AND USE THEREOF” (Guizhou University, priority 2023, published 2024):

Assays:
Test in all cases: Post-emergence herbicidal activity test (stem and leaf spray, pot culture)
Format in all cases: in vivo
Settings in all cases: 3 weeks after spraying
Echinochloa crusgalli = tested on: Echinochloa crusgalli
Method: (§1) The weeds were cultivated in a 180 mm×140 mm plastic nutrient pot by a pot-culture method, placed in an enamel tray, and the plastic nutrient pots were filled with surface soil (⅘ of a depth) collected from a farmland and air-dried and sieved, and a soil humidity was controlled at 20% in the initial stage. Weed seeds with plump and uniform grains were selected, soaked in warm water at 25° C. for 6 h, and germinated in a biochemical incubator (dark) at 28° C. The freshly exposed weed seeds were evenly placed on the soil surface, and then covered with 0.5 cm to 1 cm of soil according to the size of the seeds. The weeds are cultivated in a controlled sunlight greenhouse at 20° C. to 30° C., under natural light, and a relative humidity of 57% to 72%. The soil was loam, including 1.63% of organic matters, with a pH value of 7, 84.3 mg/kg of alkaline nitrogen, 38.5 mg/kg of available phosphorus, and 82.1 mg/kg of available potassium.
(§2) Each treatment was repeated 2 times, each treatment included 12 pots, and 20 weed seeds were sown in each pot. Pesticide was applied in the test for 1 time in total. When the weeds grew to 1.5- to 2-leaf stage, thinning was conducted, with 10 weeds in each pot, and 30 weeds were kept in each treatment.
(§3) The cultivated weeds were placed on trays with an area of 0.1 m^2, and stems and leaves were sprayed with a sprayer. After applying a pesticide, the pesticide applied weeds were moved into a greenhouse for routine cultivation.
(§4) 2 weeks after sowing, the test plants were treated at the 2- to 3-leaf stage: the compounds of the present disclosure for testing were dissolved in acetone separately, and added with Tween 80, an emulsifiable oil of 1.5 liters/ha methyl oleate was added as a synergist, and an obtained mixture was diluted with certain water to a certain concentration solution. The solution was sprayed onto the plants using a spray tower. After spraying, the weeds were cultivated in the greenhouse for 3 weeks, and the experimental effects on the weeds were counted. The effective concentrations of the compounds were 10 g/mu, 5 g/mu, and 2.5 g/mu, the experiment was repeated three times, and an average result was taken.
(§5) The activity level criteria for plant destruction (i.e. growth control rate) are as follows: • Grade 5: the growth control rate is greater than or equal to 85%; • Grade 4: the growth control rate is greater than or equal to 60% and less than 85%; • Grade 3: the growth control rate is greater than or equal to 40% and less than 60%; • Grade 2: the growth control rate is greater than or equal to 20% and less than 40%; • Grade 1: the growth control rate is greater than or equal to 5% and less than 20%; and • Grade 0: the growth control rate is less than 5%.
(§6) The growth control rate is a fresh weight control rate.

Amaranthus retroflexus = tested on: Amaranthus retroflexus
Method: as §1, §2, §3, §4, §5, §6

Portulaca oleracea = tested on: Portulaca oleracea
Method: as §1, §2, §3, §4, §5, §6

Abutilon theophrasti = tested on: Abutilon theophrasti
Method: as §1, §2, §3, §4, §5, §6

Setaria viridis = tested on: Setaria viridis
Method: as §1, §2, §3, §4, §5, §6

Trifoliumre pensL. = tested on: Trifoliumre pensL.
Method: (1) Post-Emergence Stem and Leaf Spray Treatment: The weeds were cultivated in a 180 mm×140 mm plastic nutrient pot by a pot-culture method, placed in an enamel tray, and the plastic nutrient pots were filled with surface soil (⅘ of a depth) collected from a farmland and air-dried and sieved, and a soil humidity was controlled at 20% in the initial stage. Weed seeds with plump and uniform grains were selected, soaked in warm water at 25° C. for 6 h, and germinated in a biochemical incubator (dark) at 28° C. The freshly exposed weed seeds were evenly placed on the soil surface, and then covered with 0.5 cm to 1 cm of soil according to the size of the seeds. The weeds are cultivated in a controlled sunlight greenhouse at 20° C. to 30° C., under natural light, and a relative humidity of 57% to 72%. The soil was loam, including 1.63% of organic matters, with a pH value of 7, 84.3 mg/kg of alkaline nitrogen, 38.5 mg/kg of available phosphorus, and 82.1 mg/kg of available potassium. Each treatment was repeated 2 times, each treatment included 12 pots, and 20 weed seeds were sown in each pot. Pesticide was applied in the test for 1 time in total. When the weeds grew to 1.5- to 2-leaf stage, thinning was conducted, with 10 weeds in each pot, and 30 weeds were kept in each treatment. The cultivated weeds were placed on trays with an area of 0.1 m^2, and stems and leaves were sprayed with a sprayer. After applying a pesticide, the pesticide applied weeds were moved into a greenhouse for routine cultivation. 2 weeks after sowing, the test plants were treated at the 2- to 3-leaf stage: the compounds of the present disclosure for testing were dissolved in acetone separately, and added with Tween 80, an emulsifiable oil of 1.5 liters/ha methyl oleate was added as a synergist, and an obtained mixture was diluted with certain water to a certain concentration solution. The solution was sprayed onto the plants using a spray tower. After spraying, the weeds were cultivated in the greenhouse for 3 weeks, and the experimental effects on the weeds were counted. The effective concentrations of the compounds were 10 g/mu, 5 g/mu, and 2.5 g/mu, the experiment was repeated three times, and an average result was taken.

Compound: 2-(4-chloro-2-fluoro-5-(2-oxo-2-(4-methyl)ethoxy)phenyl)-4,5,6,7-tetrahydro-1H-isoindole-1,3(2H)-dione [Compound C2]
- Post-emergence herbicidal activity, E. crusgalli (grade) (Echinochloa crusgalli; dosage 2.5 g/mu): 1 (Grade 1: the growth control rate is greater than or equal to 5% and less than 20%)
- Post-emergence herbicidal activity, E. crusgalli (grade) (Echinochloa crusgalli; dosage 5 g/mu): 2 (Grade 2: the growth control rate is greater than or equal to 20% and less than 40%)
- Post-emergence herbicidal activity, E. crusgalli (grade) (Echinochloa crusgalli; dosage 10 g/mu): 3 (Grade 3: the growth control rate is greater than or equal to 40% and less than 60%)
- Post-emergence herbicidal activity, A. retroflexus (grade) (Amaranthus retroflexus; dosage 2.5 g/mu): 5 (Grade 5: the growth control rate is greater than or equal to 85%)
- Post-emergence herbicidal activity, A. retroflexus (grade) (Amaranthus retroflexus; dosage 5 g/mu): 5 (Grade 5: the growth control rate is greater than or equal to 85%)
- Post-emergence herbicidal activity, A. retroflexus (grade) (Amaranthus retroflexus; dosage 10 g/mu): 5 (Grade 5: the growth control rate is greater than or equal to 85%)
- Post-emergence herbicidal activity, P. oleracea (grade) (Portulaca oleracea; dosage 2.5 g/mu): 5 (Grade 5: the growth control rate is greater than or equal to 85%)
- Post-emergence herbicidal activity, P. oleracea (grade) (Portulaca oleracea; dosage 5 g/mu): 5 (Grade 5: the growth control rate is greater than or equal to 85%)
- Post-emergence herbicidal activity, P. oleracea (grade) (Portulaca oleracea; dosage 10 g/mu): 5 (Grade 5: the growth control rate is greater than or equal to 85%)
- Post-emergence herbicidal activity, A. theophrasti (grade) (Abutilon theophrasti; dosage 2.5 g/mu): 5 (Grade 5: the growth control rate is greater than or equal to 85%)
- Post-emergence herbicidal activity, A. theophrasti (grade) (Abutilon theophrasti; dosage 5 g/mu): 5 (Grade 5: the growth control rate is greater than or equal to 85%)
- Post-emergence herbicidal activity, A. theophrasti (grade) (Abutilon theophrasti; dosage 10 g/mu): 5 (Grade 5: the growth control rate is greater than or equal to 85%)
- Post-emergence herbicidal activity, S. viridis (grade) (Setaria viridis; dosage 2.5 g/mu): 2 (Grade 2: the growth control rate is greater than or equal to 20% and less than 40%)
- Post-emergence herbicidal activity, S. viridis (grade) (Setaria viridis; dosage 5 g/mu): 3 (Grade 3: the growth control rate is greater than or equal to 40% and less than 60%)
- Post-emergence herbicidal activity, S. viridis (grade) (Setaria viridis; dosage 10 g/mu): 4 (Grade 4: the growth control rate is greater than or equal to 60% and less than 85%)
- Post-emergence herbicidal activity, Trifoliumre pensL. (grade) (Trifoliumre pensL.; dosage 2.5 g/mu): 5 (Grade 5: the growth control rate is greater than or equal to 85%)
- Post-emergence herbicidal activity, Trifoliumre pensL. (grade) (Trifoliumre pensL.; dosage 5 g/mu): 5 (Grade 5: the growth control rate is greater than or equal to 85%)
- Post-emergence herbicidal activity, Trifoliumre pensL. (grade) (Trifoliumre pensL.; dosage 10 g/mu): 5 (Grade 5: the growth control rate is greater than or equal to 85%)

Compound: O=C1C2=C(CCCC2)C(=O)N1c1cc(OCc2nc(-c3cccc(Cl)c3)no2)c(Cl)cc1F [Compound A3]
- Post-emergence herbicidal activity, E. crusgalli (grade) (Echinochloa crusgalli; dosage 2.5 g/mu): 1 (Grade 1: the growth control rate is greater than or equal to 5% and less than 20%)
- Post-emergence herbicidal activity, E. crusgalli (grade) (Echinochloa crusgalli; dosage 5 g/mu): 2 (Grade 2: the growth control rate is greater than or equal to 20% and less than 40%)
- Post-emergence herbicidal activity, E. crusgalli (grade) (Echinochloa crusgalli; dosage 10 g/mu): 3 (Grade 3: the growth control rate is greater than or equal to 40% and less than 60%)
- Post-emergence herbicidal activity, A. retroflexus (grade) (Amaranthus retroflexus; dosage 2.5 g/mu): 5 (Grade 5: the growth control rate is greater than or equal to 85%)
- Post-emergence herbicidal activity, A. retroflexus (grade) (Amaranthus retroflexus; dosage 5 g/mu): 5 (Grade 5: the growth control rate is greater than or equal to 85%)
- Post-emergence herbicidal activity, A. retroflexus (grade) (Amaranthus retroflexus; dosage 10 g/mu): 5 (Grade 5: the growth control rate is greater than or equal to 85%)
- Post-emergence herbicidal activity, P. oleracea (grade) (Portulaca oleracea; dosage 2.5 g/mu): 4 (Grade 4: the growth control rate is greater than or equal to 60% and less than 85%)
- Post-emergence herbicidal activity, P. oleracea (grade) (Portulaca oleracea; dosage 5 g/mu): 5 (Grade 5: the growth control rate is greater than or equal to 85%)
- Post-emergence herbicidal activity, P. oleracea (grade) (Portulaca oleracea; dosage 10 g/mu): 5 (Grade 5: the growth control rate is greater than or equal to 85%)
- Post-emergence herbicidal activity, A. theophrasti (grade) (Abutilon theophrasti; dosage 2.5 g/mu): 5 (Grade 5: the growth control rate is greater than or equal to 85%)
- Post-emergence herbicidal activity, A. theophrasti (grade) (Abutilon theophrasti; dosage 5 g/mu): 5 (Grade 5: the growth control rate is greater than or equal to 85%)
- Post-emergence herbicidal activity, A. theophrasti (grade) (Abutilon theophrasti; dosage 10 g/mu): 5 (Grade 5: the growth control rate is greater than or equal to 85%)
- Post-emergence herbicidal activity, S. viridis (grade) (Setaria viridis; dosage 2.5 g/mu): 2 (Grade 2: the growth control rate is greater than or equal to 20% and less than 40%)
- Post-emergence herbicidal activity, S. viridis (grade) (Setaria viridis; dosage 5 g/mu): 3 (Grade 3: the growth control rate is greater than or equal to 40% and less than 60%)
- Post-emergence herbicidal activity, S. viridis (grade) (Setaria viridis; dosage 10 g/mu): 4 (Grade 4: the growth control rate is greater than or equal to 60% and less than 85%)
- Post-emergence herbicidal activity, Trifoliumre pensL. (grade) (Trifoliumre pensL.; dosage 2.5 g/mu): 4 (Grade 4: the growth control rate is greater than or equal to 60% and less than 85%)
- Post-emergence herbicidal activity, Trifoliumre pensL. (grade) (Trifoliumre pensL.; dosage 5 g/mu): 5 (Grade 5: the growth control rate is greater than or equal to 85%)
- Post-emergence herbicidal activity, Trifoliumre pensL. (grade) (Trifoliumre pensL.; dosage 10 g/mu): 5 (Grade 5: the growth control rate is greater than or equal to 85%)

Compound: O=C1C2=C(CCCC2)C(=O)N1c1cc(OCc2nc(-c3ccccc3Br)no2)c(Cl)cc1F [Compound A4]
- Post-emergence herbicidal activity, E. crusgalli (grade) (Echinochloa crusgalli; dosage 2.5 g/mu): 1 (Grade 1: the growth control rate is greater than or equal to 5% and less than 20%)
- Post-emergence herbicidal activity, E. crusgalli (grade) (Echinochloa crusgalli; dosage 5 g/mu): 2 (Grade 2: the growth control rate is greater than or equal to 20% and less than 40%)
- Post-emergence herbicidal activity, E. crusgalli (grade) (Echinochloa crusgalli; dosage 10 g/mu): 3 (Grade 3: the growth control rate is greater than or equal to 40% and less than 60%)
- Post-emergence herbicidal activity, A. retroflexus (grade) (Amaranthus retroflexus; dosage 2.5 g/mu): 5 (Grade 5: the growth control rate is greater than or equal to 85%)
- Post-emergence herbicidal activity, A. retroflexus (grade) (Amaranthus retroflexus; dosage 5 g/mu): 5 (Grade 5: the growth control rate is greater than or equal to 85%)
- Post-emergence herbicidal activity, A. retroflexus (grade) (Amaranthus retroflexus; dosage 10 g/mu): 5 (Grade 5: the growth control rate is greater than or equal to 85%)
- Post-emergence herbicidal activity, P. oleracea (grade) (Portulaca oleracea; dosage 2.5 g/mu): 4 (Grade 4: the growth control rate is greater than or equal to 60% and less than 85%)
- Post-emergence herbicidal activity, P. oleracea (grade) (Portulaca oleracea; dosage 5 g/mu): 5 (Grade 5: the growth control rate is greater than or equal to 85%)
- Post-emergence herbicidal activity, P. oleracea (grade) (Portulaca oleracea; dosage 10 g/mu): 5 (Grade 5: the growth control rate is greater than or equal to 85%)
- Post-emergence herbicidal activity, A. theophrasti (grade) (Abutilon theophrasti; dosage 2.5 g/mu): 5 (Grade 5: the growth control rate is greater than or equal to 85%)
- Post-emergence herbicidal activity, A. theophrasti (grade) (Abutilon theophrasti; dosage 5 g/mu): 5 (Grade 5: the growth control rate is greater than or equal to 85%)
- Post-emergence herbicidal activity, A. theophrasti (grade) (Abutilon theophrasti; dosage 10 g/mu): 5 (Grade 5: the growth control rate is greater than or equal to 85%)
- Post-emergence herbicidal activity, S. viridis (grade) (Setaria viridis; dosage 2.5 g/mu): 2 (Grade 2: the growth control rate is greater than or equal to 20% and less than 40%)
- Post-emergence herbicidal activity, S. viridis (grade) (Setaria viridis; dosage 5 g/mu): 3 (Grade 3: the growth control rate is greater than or equal to 40% and less than 60%)
- Post-emergence herbicidal activity, S. viridis (grade) (Setaria viridis; dosage 10 g/mu): 4 (Grade 4: the growth control rate is greater than or equal to 60% and less than 85%)
- Post-emergence herbicidal activity, Trifoliumre pensL. (grade) (Trifoliumre pensL.; dosage 2.5 g/mu): 4 (Grade 4: the growth control rate is greater than or equal to 60% and less than 85%)
- Post-emergence herbicidal activity, Trifoliumre pensL. (grade) (Trifoliumre pensL.; dosage 5 g/mu): 5 (Grade 5: the growth control rate is greater than or equal to 85%)
- Post-emergence herbicidal activity, Trifoliumre pensL. (grade) (Trifoliumre pensL.; dosage 10 g/mu): 5 (Grade 5: the growth control rate is greater than or equal to 85%)
